Laboratory results taken from patent publication US10738056B2 (Aduro BioTech, Inc., priority 2017, dated 2020).

Target: Human cGAS amino acids 155-522 (Homo sapiens (Human), UniProt Q8N884)
Test: cGAS biochemical activity assay (ATP remaining, Kinase-Glo Max luminescence)
Settings: human cGAS 155-522, ATP remaining (Kinase-Glo Max); read-out: cGAS IC50

Human cGAS amino acids 155-522, sequence (Q8N884 157-522): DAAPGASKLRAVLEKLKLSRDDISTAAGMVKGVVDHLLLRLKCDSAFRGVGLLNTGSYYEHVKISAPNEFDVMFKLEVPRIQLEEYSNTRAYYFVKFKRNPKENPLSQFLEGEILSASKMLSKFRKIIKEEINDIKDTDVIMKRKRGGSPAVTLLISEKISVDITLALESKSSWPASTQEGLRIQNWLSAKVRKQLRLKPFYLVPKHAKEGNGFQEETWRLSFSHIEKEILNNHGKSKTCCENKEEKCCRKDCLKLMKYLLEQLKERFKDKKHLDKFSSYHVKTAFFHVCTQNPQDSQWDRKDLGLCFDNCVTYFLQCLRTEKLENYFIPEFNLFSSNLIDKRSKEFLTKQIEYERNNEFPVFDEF

IC50 [µM] | SMILES
20 to 250 | COc1cc(F)c(F)cc1NC(=O)c1c(C)[nH]c2c(-c3ccccc3)c(C(F)(F)F)nn2c1=O [Compound A1080, N-(4,5-difluoro-2-methoxyphenyl)-5-methyl-7-oxo-3-phenyl-2-(trifluoromethyl)-4,7-dihydropyrazolo[1,5-a]pyrimidine-6-carboxamide]
< 20 | Cc1[nH]c2c(-c3ccccc3)c(C(F)(F)F)nn2c(=O)c1C(=O)Nc1cccc(OCc2ccccc2)c1 [Compound A1086, N-(3-(benzyloxy)phenyl)-5-methyl-7-oxo-3-phenyl-2-(trifluoromethyl)-4,7-dihydropyrazolo[1,5-a]pyrimidine-6-carboxamide]
20 to 250 | COc1cc(NC(=O)c2c(C)[nH]c3c(-c4ccccc4)c(C(F)(F)F)nn3c2=O)ccn1 [Compound A1087, N-(2-methoxypyridin-4-yl)-5-methyl-7-oxo-3-phenyl-2-(trifluoromethyl)-4,7-dihydropyrazolo[1,5-a]pyrimidine-6-carboxamide]
< 20 | Cc1[nH]c2c(-c3ccccc3)c(C(F)(F)F)nn2c(=O)c1C(=O)Nc1nn(C)cc1C#N [Compound A1090, N-(4-cyano-1-methyl-1H-pyrazol-3-yl)-5-methyl-7-oxo-3-phenyl-2-(trifluoromethyl)-4,7-dihydropyrazolo[1,5-a]pyrimidine-6-carboxamide]
20 to 250 | Cc1[nH]c2c(-c3ccccc3)c(C(F)(F)F)nn2c(=O)c1C(=O)N[C@H]1CCCC[C@@H]1O [Compound A1091, N-((1S,2S)-2-hydroxycyclohexyl)-5-methyl-7-oxo-3-phenyl-2-(trifluoromethyl)-4,7-dihydropyrazolo[1,5-a]pyrimidine-6-carboxamide]
20 to 250 | Cc1[nH]c2c(-c3ccccc3)c(C(F)(F)F)nn2c(=O)c1C(=O)N[C@H]1CCCC[C@H]1O [Compound A1092, N-((1S,2R)-2-hydroxycyclohexyl)-5-methyl-7-oxo-3-phenyl-2-(trifluoromethyl)-4,7-dihydropyrazolo[1,5-a]pyrimidine-6-carboxamide]
20 to 250 | COc1ncccc1NC(=O)c1c(C)[nH]c2c(-c3ccccc3)c(C(F)(F)F)nn2c1=O [Compound A1093, N-(2-methoxypyridin-3-yl)-5-methyl-7-oxo-3-phenyl-2-(trifluoromethyl)-4,7-dihydropyrazolo[1,5-a]pyrimidine-6-carboxamide]
< 20 | COc1cncc(NC(=O)c2c(C)[nH]c3c(-c4ccccc4)c(C(F)(F)F)nn3c2=O)c1 [Compound A1094, N-(5-methoxypyridin-3-yl)-5-methyl-7-oxo-3-phenyl-2-(trifluoromethyl)-4,7-dihydropyrazolo[1,5-a]pyrimidine-6-carboxamide]
20 to 250 | COc1nccnc1NC(=O)c1c(C)[nH]c2c(-c3ccccc3)c(C(F)(F)F)nn2c1=O [Compound A1097, N-(3-methoxypyrazin-2-yl)-5-methyl-7-oxo-3-phenyl-2-(trifluoromethyl)-4,7-dihydropyrazolo[1,5-a]pyrimidine-6-carboxamide]
20 to 250 | COc1cncc(NC(=O)c2c(C)[nH]c3c(-c4ccccc4)c(C(F)(F)F)nn3c2=O)n1 [Compound A1098, N-(6-methoxypyrazin-2-yl)-5-methyl-7-oxo-3-phenyl-2-(trifluoromethyl)-4,7-dihydropyrazolo[1,5-a]pyrimidine-6-carboxamide]
20 to 250 | COc1ccncc1NC(=O)c1c(C)[nH]c2c(-c3ccccc3)c(C(F)(F)F)nn2c1=O [Compound A1103, N-(4-methoxypyridin-3-yl)-5-methyl-7-oxo-3-phenyl-2-(trifluoromethyl)-4,7-dihydropyrazolo[1,5-a]pyrimidine-6-carboxamide]
< 20 | COc1ccnc(NC(=O)c2c(C)[nH]c3c(-c4ccccc4)c(C)nn3c2=O)c1 [Compound A1105, N-(4-methoxypyridin-2-yl)-2,5-dimethyl-7-oxo-3-phenyl-4,7-dihydropyrazolo[1,5-a]pyrimidine-6-carboxamide]
20 to 250 | Cc1[nH]c2c(-c3ccccc3)c(C(F)(F)F)nn2c(=O)c1C(=O)Nc1ccc(S(C)(=O)=O)cn1 [Compound A1108, 5-methyl-N-(5-(methylsulfonyl)pyridin-2-yl)-7-oxo-3-phenyl-2-(trifluoromethyl)-4,7-dihydropyrazolo[1,5-a]pyrimidine-6-carboxamide]
20 to 250 | Cc1[nH]c2c(-c3ccccc3)c(C(F)(F)F)nn2c(=O)c1C(=O)Nc1cnccc1S(C)(=O)=O [Compound A1109, 5-methyl-N-(4-(methylsulfonyl)pyridin-3-yl)-7-oxo-3-phenyl-2-(trifluoromethyl)-4,7-dihydropyrazolo[1,5-a]pyrimidine-6-carboxamide]
> 250 | COc1cccc(N(C)C(=O)c2c(C)[nH]c3c(-c4ccccc4)c(C(F)(F)F)nn3c2=O)c1 [Compound A1114, N-(3-methoxyphenyl)-N,5-dimethyl-7-oxo-3-phenyl-2-(trifluoromethyl)-4,7-dihydropyrazolo[1,5-a]pyrimidine-6-carboxamide]
20 to 250 | Cc1[nH]c2c(-c3ccccc3)c(C(F)(F)F)nn2c(=O)c1C(=O)Nc1ccccc1NS(=O)(=O)C1CCCCC1 [Compound A1119, N-(2-(cyclohexanesulfonamido)phenyl)-5-methyl-7-oxo-3-phenyl-2-(trifluoromethyl)-4,7-dihydropyrazolo[1,5-a]pyrimidine-6-carboxamide]

IC50 [µM] | SMILES
> 250 | COc1cccc(NC(=O)c2c(C)[nH]c3c(-c4ccccc4)c(C4CC4)nn3c2=O)c1 [Compound A1123, 2-cyclopropyl-N-(3-methoxyphenyl)-5-methyl-7-oxo-3-phenyl-4,7-dihydropyrazolo[1,5-a]pyrimidine-6-carboxamide]
> 250 | COc1cccc(NC(=O)c2c(C)[nH]c3c(-c4ccccc4)c(S(C)(=O)=O)nn3c2=O)c1 [Compound A1126, N-(3-methoxyphenyl)-5-methyl-2-(methylsulfonyl)-7-oxo-3-phenyl-4,7-dihydropyrazolo[1,5-a]pyrimidine-6-carboxamide]
20 to 250 | COc1c(Br)cccc1NC(=O)c1c(C)[nH]c2c(-c3ccccc3)c(C(F)(F)F)nn2c1=O [Compound A1130, N-(3-bromo-2-methoxyphenyl)-5-methyl-7-oxo-3-phenyl-2-(trifluoromethyl)-4,7-dihydropyrazolo[1,5-a]pyrimidine-6-carboxamide]
20 to 250 | COc1cccc(NC(=O)c2c(C)[nH]c3c(-c4ccccc4)c(C(F)(F)F)nn3c2=O)c1Br [Compound A1131, N-(2-bromo-3-methoxyphenyl)-5-methyl-7-oxo-3-phenyl-2-(trifluoromethyl)-4,7-dihydropyrazolo[1,5-a]pyrimidine-6-carboxamide]
< 20 | COc1cc(F)cc(NC(=O)c2c(C)[nH]c3c(-c4ccccc4)c(C(F)(F)F)nn3c2=O)c1 [Compound A1133, N-(3-fluoro-5-methoxyphenyl)-5-methyl-7-oxo-3-phenyl-2-(trifluoromethyl)-4,7-dihydropyrazolo[1,5-a]pyrimidine-6-carboxamide]
20 to 250 | COc1c(F)cccc1NC(=O)c1c(C)[nH]c2c(-c3ccccc3)c(C(F)(F)F)nn2c1=O [Compound A1137, N-(3-fluoro-2-methoxyphenyl)-5-methyl-7-oxo-3-phenyl-2-(trifluoromethyl)-4,7-dihydropyrazolo[1,5-a]pyrimidine-6-carboxamide]
20 to 250 | COc1c(Cl)cccc1NC(=O)c1c(C)[nH]c2c(-c3ccccc3)c(C(F)(F)F)nn2c1=O [Compound A1138, N-(3-chloro-2-methoxyphenyl)-5-methyl-7-oxo-3-phenyl-2-(trifluoromethyl)-4,7-dihydropyrazolo[1,5-a]pyrimidine-6-carboxamide]
20 to 250 | Cc1[nH]c2c(-c3ccccc3)c(C(F)(F)F)nn2c(=O)c1C(N)=O [Compound A1140, 5-methyl-7-oxo-3-phenyl-2-(trifluoromethyl)-4,7-dihydropyrazolo[1,5-a]pyrimidine-6-carboxamide]
20 to 250 | Cc1[nH]c2c(-c3ccccc3)c(C(F)(F)F)nn2c(=O)c1CC(=O)Nc1ccccc1N [Compound B1001, N-(2-aminophenyl)-2-(5-methyl-7-oxo-3-phenyl-2-(trifluoromethyl)-4,7-dihydropyrazolo[1,5-a]pyrimidin-6-yl)acetamide]
> 250 | Cc1[nH]c2c(-c3ccccc3)c(C(F)(F)F)nn2c(=O)c1CC(=O)N1CCOCC1 [Compound B1002, 5-methyl-6-(2-morpholino-2-oxoethyl)-3-phenyl-2-(trifluoromethyl)pyrazolo[1,5-a]pyrimidin-7(4H)-one]
> 250 | COCCNC(=O)Cc1c(C)[nH]c2c(-c3ccccc3)c(C(F)(F)F)nn2c1=O [Compound B1003, N-(2-methoxyethyl)-2-(5-methyl-7-oxo-3-phenyl-2-(trifluoromethyl)-4,7-dihydropyrazolo[1,5-a]pyrimidin-6-yl)acetamide]
20 to 250 | Cc1[nH]c2c(-c3ccccc3)c(C(F)(F)F)nn2c(=O)c1CC(=O)Nc1ccncc1 [Compound B1004, 2-(5-methyl-7-oxo-3-phenyl-2-(trifluoromethyl)-4,7-dihydropyrazolo[1,5-a]pyrimidin-6-yl)-N-(pyridin-4-yl)acetamide]
20 to 250 | Cc1[nH]c2c(-c3ccccc3)c(C(F)(F)F)nn2c(=O)c1CC(=O)Nc1ccccc1 [Compound B1005]
20 to 250 | COc1ccc(NC(=O)Cc2c(C)[nH]c3c(-c4ccccc4)c(C(F)(F)F)nn3c2=O)cc1 [Compound B1006, N-(4-methoxyphenyl)-2-(5-methyl-7-oxo-3-phenyl-2-(trifluoromethyl)-4,7-dihydropyrazolo[1,5-a]pyrimidin-6-yl)acetamide]
> 250 | Cc1[nH]c2c(-c3ccccc3)c(C(F)(F)F)nn2c(=O)c1CC(=O)N1CCN(c2ccccc2)CC1 [Compound B1007, 5-methyl-6-(2-oxo-2-(4-phenylpiperazin-1-yl)ethyl)-3-phenyl-2-(trifluoromethyl)pyrazolo[1,5-a]pyrimidin-7(4H)-one]

SMILES | IC50 [µM]
COc1cccc(NC(=O)c2c(C)[nH]c3c(-c4ccccc4)c(SC)nn3c2=O)c1 [Compound A1122, N-(3-methoxyphenyl)-5-methyl-2-(methylthio)-7-oxo-3-phenyl-4,7-dihydropyrazolo[1,5-a]pyrimidine-6-carboxamide] | 20 to 250
